In patent publication US8785483B2, “Methods for treating COPD” (The Board of Regents of the University of Texas System, priority 2010, dated 2014):

What was measured:
[1] = system: small airway epithelial cells (SAEC); assay: Cell viability (MTT) assay, CSE-induced cell death; assay type: cell-based, human; conditions: 24 h, with fidarestat (10 μM in FIG. 1 legend, 20 μM in method)
Procedure: FIG. 1. Inhibition of AR prevents cigarette smoke extract (CSE)-induced cell-death in small airway epithelial cells (SAEC). MTT assay was performed after incubating the cells for 24 h with different concentrations of CSE in absence and presence of 10 μM Fidarestat. Bars (Mean±SD; n=6) represent the absorbance at 570 nm corresponding to live cells. Primary human Small Airway Epithelial Cells (SAEC) obtained from Lonza (Walkersville, Md.) were normal human SAEC harvested from distal airspace of donor. The cells were cultured according to the supplier's instructions at 37° C. in humidified atmosphere containing 95% air and 5% CO2 in small airway epithelial basal medium (SABM) with supplements containing 52 μg/ml bovine pituitary extract, 0.5 ng/ml human recombinant epidermal growth factor (EGF), 0.5 μg/ml epinephrine, 1 μg/ml hydrocortisone, 10 μg/ml transferrin, 5 μg/ml insulin, 0.1 ng/ml retinoic acid (RA), 6.5 ng/ml triiodothyronine, 50 μg/ml Gentamicin/Amphotericin-B (GA-1000), and 50 μg/ml fatty acid-free bovine serum albumin (BSA). […] Absorbance was read at 570 nm using a 96-well ELISA plate reader.

[2] = system: airway epithelial cell monolayer (SAEC at ALI); assay: Air-liquid interface culture: IL-13-induced loss of cilia and goblet cell metaplasia (H&E, PAS, β-tubulin and Muc5AC immunostaining); assay type: cell-based, human
Procedure: FIGS. 4A-4B. AR inhibition prevents IL-13-induced loss of cilia and β-tubulin in airway epithelial cell monolayer. Approximately 8.5×10^4 SAEC were seeded per 12 mm diameter PET transparent insert and cultured for 7 days in differentiation media supplied from both lower and upper sides followed by culture on ALI for 11 days for differentiation into ciliated cells. The monolayer was treated with AR inhibitor for overnight and stimulated with IL-13 for 48 h. The monolayers on the membrane inserts were fixed for 24 h in z-fix (10% buffered formalin with zinc) at 4° C., paraffin embedded and […] sections were cut. (A) The H&E stained sections were examined under the light microscope; magnification 400×. […] (B) Immunohistochemistry using β-tubulin antibodies was performed on the sections. Dark brown staining in the monolayer corresponds to cilia axoneme β-tubulin. Arrows show loss of β-tubulin as the ciliated cells transform into goblet cells. A representative photomicrograph has been shown (n=4); magnification 400×. FIGS. 5A-5B. AR inhibition prevents IL-13-induced goblet cell metaplasia and expression of Muc5AC in airway epithelial monolayer. (A) The well-differentiated airway epithelial cells at air-liquid interface (ALI) were incubated with IL-13 for 48 h without or with AR inhibitor, fidarestat. The monolayer was fixed as described and immunohistochemistry using Muc5AC antibodies was performed on the sections. A representative photomicrograph is shown (n=4); magnification 400×. […] (C) The airway epithelial monolayer was incubated with IL-13 submerged in basal medium for 48 h in the absence and presence of AR inhibitor, fidarestat. The culture medium was collected from the top chamber and utilized for determination of Muc5AC by an ELISA, (n=4); *p<0.005 vs Control; **p<0.01 vs IL-13. For air-liquid interface (ALI) culture, SAEC were seeded at 8.5×10^4 cells/12-mm-diameter PET transparent insert with […] pores (12-well millicell culture insert; Millipore) and pre-coated with rat tail collagen type-1 (Sigma-Aldrich). The cells were grown submerged in the differentiation medium as described earlier by Zhen et al. (Am J Respir Cell Mol Biol 36: 244-253, 2007). The differentiation medium contained a 1:1 mixture of DMEM and small airway epithelial growth medium supplemented as described above, except that gentamycin sulfate, amphotericin B, and triiodothyronine were replaced with 1% penicillin/streptomycin, and 50 nM all-trans retinoic acid. The SAEC were maintained submerged for the first 7 days, after which the apical medium was removed and an air-liquid interface culture was established. […] The stained sections were analyzed and representative fields were photographed using a Photometrix CoolSNAP Fx camera mounted on a NIKON Eclipse TE 200 UV microscope. […]

## NC(=O)[C@@H]1C[C@]2(NC(=O)NC2=O)c2cc(F)ccc2O1 [fidarestat, (2S,4S)-2-aminoformyl-6-fluoro-spiro[chroman-4,4′-imidazolidine]-2′,5′-dione]
[1]; 12.5% CSE
  cells alive after CSE: more than 95%
[1]; 50% CSE
  cells alive after CSE: > 85%
[2]; IL-13 48 h, Muc5AC immunostaining
  decrease in number of Muc5AC positive cells: ~70%
[2]; fidarestat 10 μM overnight, IL-13 25 ng/ml 48 h
  ciliated morphology (β-tubulin immunostaining) after IL-13: preserved the ciliated morphology
[2]; inhibitor added prior to IL-13 challenge, 48 h, data not shown
  differentiation of airway cells into goblet cells (PAS staining): prevented the airway cells from differentiating into goblet cells
[2]; inhibitor alone, no IL-13
  toxic effects of AR inhibitor alone on monolayer of ciliated cells: no toxic effects
